Measurements taken from US20120041070A1, “METHODS OF TREATING CANCER HAVING AN ABERRANT EGFR OR KRAS GENOTYPE” (priority 2009, published 2012).
Like-named read-outs stand apart in the source and are kept apart here.

Experiments:
[1] = test system: HME-TERT-KRAS (G13D) cells; assay: MTS cell proliferation assay, HME-TERT cells carrying KRAS mutation; format: cell-based, human; conditions: for EC50: Homo sapiens, HME-TERT-KRAS (G13D), MTS, 0.5% FBS, read-out: Inhibition of cell proliferation: EC50, KRAS
Procedure: (§1) To investigate the effect of phenformin on proliferation of cells carrying a KRAS mutation, HME cell proliferation assays were performed. An isogenic HME-TERT cell line carrying a mutation in KRAS (G13D) was generated by a “knock in” approach. HME-TERT-KRAS (G13D) cells and control HME parental cells were cultured in DMEM/F12K (glucose 17 mM, glutamine 2.5 mM) with 0.5% FBS, and were treated with a series of dilution of Paclitaxel (100 nM top concentration, 3-fold dilution), Phenformin (3 mM top concentration, 3-fold dilution), or metformin (10 mM top concentration, 3-fold dilution), in duplication or triplication. MTS assays were performed 48, 72, 96 or 120 hours after drug treatment. MTS assay is a colorimetric assay for determining the number of viable cells (see, e.g., Cory A H et al., 1991, Cancer communications 3 (7): 207-12, and Wilson, A P, Cytotoxicity and Viability Assays in Animal Cell Culture: A Practical Approach, 3rd ed. (ed. Masters, J. R. W.) Oxford University Press, 2000, Vol. 1). […] Z′ is defined as Z′=1-3(MAX stdev−background stdev)/(MAX−background). A Z′ value greater than 0.4 is acceptable for cell assays, and a Z′ value greater than 0.6 is acceptable for enzyme assays.

[2] = test system: HME-TERT parental (wild type) cells; assay: MTS cell proliferation assay, control HME parental (WT) cells; format: cell-based; conditions: Homo sapiens, 0.5% FBS, read-out: Inhibition of cell proliferation: EC50, WT
Procedure: (§2) To investigate the effect of phenformin on proliferation of cells carrying an EGFR mutation, HME cell proliferation assays were performed. An isogenic HME-TERT cell line carrying a mutation in EGFR (del E746-A750) was generated by a “knock in” approach. HME-TERT-EGFR (del E746-A750) cells and control HME parental cells were cultured in DMEM/F12K (glucose 17 mM, glutamine 2.5 mM) with 0.5% FBS, and were treated with a series of dilution of Paclitaxel (100 nM top concentration, 3-fold dilution), Phenformin (3 mM top concentration, 3-fold dilution), or metformin (10 mM top concentration, 3-fold dilution), in duplication or triplication. MTS assays were performed 48, 72, 96 or 120 hours after drug treatment. MTS assay is a colorimetric assay for determining the number of viable cells (see, e.g., Cory A H et al., 1991, Cancer communications 3 (7): 207-12, and Wilson, A P, Cytotoxicity and Viability Assays in Animal Cell Culture: A Practical Approach, 3rd ed. (ed. Masters, J. R. W.) Oxford University Press, 2000, Vol. 1). […] Z′ is defined as Z′=1-3(MAX stdev−background stdev)/(MAX−background). A Z′ value greater than 0.4 is acceptable for cell assays, and a Z′ value greater than 0.6 is acceptable for enzyme assays.
as §1

[3] = test system: HME-TERT-EGFR (del E746-A750) cells; assay: MTS cell proliferation assay, HME-TERT cells carrying EGFR mutation; format: cell-based, human; conditions: for EC50: Homo sapiens, HME-TERT-EGFR (del E746-A750), MTS, 0.5% FBS, read-out: Inhibition of cell proliferation: EC50, EGFR
Procedure: as §2

[4] = test system: A549 NSCL (KRAS mutant) cells; assay: A549 cell proliferation assay (Cell TiterGlow, total ATP); format: cell-based; conditions: for EC50: Homo sapiens, A549, DMEM 10% FBS, 72 hours, Cell TiterGlow, read-out: EC50, inhibition of A549 cell proliferation
Procedure: To investigate the effect of phenformin on proliferation of a commonly used cancer cell line A549 NSCL (KRAS mutant), a cell proliferation assay was performed. A549 cells were grown in DMEM with 10% FBS, and were treated with designated concentrations (phenformin dose range 0-100 μM; metformin dose range 0-3000 μM) of drugs for 72 hours. Cell viability was determined with Cell TiterGlow to measure total ATP content in live cells.

Row | EC50 [4] [mM] | Structure (SMILES) | EC50 ([1]; 48 h) [mM] | EC50 ([1]; 72 h) [mM] | EC50 ([1]; 96 h) [mM] | EC50 ([1]; 120 h) [mM] | EC50 ([2]; 48 h after drug treatment) [mM] | EC50 ([2]; 72 h after drug treatment) [mM] | EC50 ([2]; 96 h after drug treatment) [mM] | EC50 ([2]; 120 h after drug treatment) [mM] | EC50 ([3]; 48 h) [mM] | EC50 ([3]; 72 h) [mM] | EC50 ([3]; 96 h) [mM] | EC50 ([3]; 120 h) [mM] | inhibition of proliferation of KRAS mutated HME cells compared with wild type cells ([1]; MTS assay, result in words) | inhibition of proliferation of EGFR mutated HME cells compared with wild type cells ([3]; MTS assay, result in words) | fold more sensitive than metformin in inhibiting the proliferation of A549 cells ([4]; A549, 72 hours, ratio of EC50 values)
1 | 0.65 | CN(C)C(=N)N=C(N)N [metformin] | > 3 | > 3 | > 3 | > 3 | > 3 | > 3 | > 3 | > 3 | > 3 | > 3 | > 3 | > 3 |  |  | 
2 | 0.005 | N=C(N)NC(=N)NCCc1ccccc1 [phenformin] | 1.64 | 1.25 | 0.727 | 0.44 | 2.09 | 1.69 | 1.14 | 0.626 | 1.68 | 0.632 | 0.486 | 0.393 | more than that of wild type cells | more than that of wild type cells | about 112 fold
